Measured values taken from ChEMBL document CHEMBL1145804, “Synthesis and characterization of the first fluorescent antagonists for human 5-HT4 receptors” (J Med Chem, 2003).

Molecular target: T1, 5-hydroxytryptamine receptor 4 (Homo sapiens, UniProt Q13639)
Assay: Binding affinity towards cloned human 5-hydroxytryptamine 4E receptor expressed in C6 glial cells using [3H]GR-113808 as radioligand
Format: cell-based

T1 sequence (Q13639 whole entry): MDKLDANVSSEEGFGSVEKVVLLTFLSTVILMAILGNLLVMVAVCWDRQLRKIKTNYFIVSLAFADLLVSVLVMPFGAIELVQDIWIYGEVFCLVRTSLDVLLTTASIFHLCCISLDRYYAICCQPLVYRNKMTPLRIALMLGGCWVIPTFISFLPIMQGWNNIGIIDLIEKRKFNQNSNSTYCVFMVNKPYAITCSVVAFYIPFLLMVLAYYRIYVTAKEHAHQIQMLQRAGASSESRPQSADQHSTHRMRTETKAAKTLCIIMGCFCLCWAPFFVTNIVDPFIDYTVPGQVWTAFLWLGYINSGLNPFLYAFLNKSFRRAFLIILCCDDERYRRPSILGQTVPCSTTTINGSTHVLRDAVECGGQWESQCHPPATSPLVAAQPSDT

Q: For `COc1cc(N)c(Cl)cc1C(=O)OCCN1CCC(CN2C(=O)c3cccc4c(N(C)C)ccc(c34)C2=O)CC1`, which Ki is on record?
A: 181 nM

Q: With `COc1cc(N)c(Cl)cc1C(=O)OCCN1CCC(CCNS(=O)(=O)c2cccc3c(N(C)C)cccc23)CC1` as the compound, how does the Ki read?
A: 77 nM

Q: How did the Ki turn out when `COc1cc(N)c(Cl)cc1C(=O)OCCN1CCC(CCCNS(=O)(=O)c2cccc3c(N(C)C)cccc23)CC1` was run?
A: 32 nM

Q: Which Ki does the source give for `COc1cc(N)c(Cl)cc1C(=O)OCCN1CCN(C(=O)CCCCCCCCCCNS(=O)(=O)c2cccc3c(N(C)C)cccc23)CC1` here?
A: 96 nM

Q: How did the Ki turn out when `COc1cc(N)c(Cl)cc1C(=O)OCCN1CCC(CNS(=O)(=O)c2cccc3c(N(C)C)cccc23)CC1` was run?
A: 7 nM

Q: With `COc1cc(N)c(Cl)cc1C(=O)OCCN1CCC(CCCCNS(=O)(=O)c2cccc3c(N(C)C)cccc23)CC1` as the compound, how does the Ki read?
A: 24 nM

Q: With `COc1cc(N)c(Cl)cc1C(=O)OCCN1CCN(C(=O)CNS(=O)(=O)c2cccc3c(N(C)C)cccc23)CC1` as the compound, how does the Ki read?
A: 1720 nM

Q: With `COc1cc(N)c(Cl)cc1C(=O)OCCN1CCC(CNc2ccc([N+](=O)[O-])c3n[o+][n-]c23)CC1` as the compound, how does the Ki read?
A: 7.5 nM

Q: With `COc1cc(N)c(Cl)cc1C(=O)OCCN1CCN(C(=O)CCCCCCCNS(=O)(=O)c2cccc3c(N(C)C)cccc23)CC1` as the compound, how does the Ki read?
A: 31 nM

Q: With `COc1cc(N)c(Cl)cc1C(=O)OCCN1CCC(CN2C(=O)c3cccc4c(N)ccc(c34)C2=O)CC1` as the compound, how does the Ki read?
A: 64 nM

Q: How did the Ki turn out when `COc1cc(N)c(Cl)cc1C(=O)OCCN1CCN(C(=O)CCCCCNS(=O)(=O)c2cccc3c(N(C)C)cccc23)CC1` was run?
A: 180 nM

Q: `COc1cc(N)c(Cl)cc1C(=O)OCCN1CCN(C(=O)CCCNS(=O)(=O)c2cccc3c(N(C)C)cccc23)CC1` was tested. Which Ki did it give?
A: 183 nM

Q: `COc1cc(N)c(Cl)cc1C(=O)OCCN1CCC(CCCCN2C(=O)c3cccc4c(N(C)C)ccc(c34)C2=O)CC1` was tested. Which Ki did it give?
A: 59 nM

Q: How did the Ki turn out when `COc1cc(N)c(Cl)cc1C(=O)OCCN1CCN(C(=O)CCNS(=O)(=O)c2cccc3c(N(C)C)cccc23)CC1` was run?
A: 116 nM

Q: With `COc1cc(N)c(Cl)cc1C(=O)OCCN1CCC(NS(=O)(=O)c2cccc3c(N(C)C)cccc23)CC1` as the compound, how does the Ki read?
A: 264 nM

Molecular target: T1, 5-hydroxytryptamine receptor 4
Assay: Antagonist activity (inhibition of 5-HT-stimulated cAMP synthesis) of compound at cloned human 5-hydroxytryptamine 4E receptor expressed in C6 glial cells by Schild analysis

Q: How did the Kb turn out when `COc1cc(N)c(Cl)cc1C(=O)OCCN1CCC(CNc2ccc([N+](=O)[O-])c3nonc23)CC1` was run?
A: 2.1 nM

Q: For `COc1cc(N)c(Cl)cc1C(=O)OCCN1CCC(CNS(=O)(=O)c2cccc3c(N(C)C)cccc23)CC1`, which Kb is on record?
A: 5.7 nM

Q: Which Kb does the source give for `COc1cc(N)c(Cl)cc1C(=O)OCCN1CCC(CN2C(=O)c3cccc4c(N)ccc(c34)C2=O)CC1` here?
A: 9 nM
